Experimental data taken from ChEMBL document CHEMBL1201862, “PubChem BioAssay data set” (2004).
The source made the active and inactive calls.

What was measured:
[1] = system: BJ; experiment: cytotoxicity toward BJ-TERT fibroblasts, dose response, cell-based, RAS-independent, luminescence (AID 1933); assay type: functional; conditions: Homo sapiens
[2] = system: BJ; experiment: cells; assay type: functional, cell-based; conditions: Homo sapiens
[3] = microbe, parasite or virus in culture; assay type: functional; conditions: Mycobacterium tuberculosis
[4] = system: BJ; experiment: cytotoxicity toward BJ-TERT-LT-ST fibroblasts, dose response, cell-based, RAS-independent, luminescence (AID 1935); assay type: functional; conditions: Homo sapiens;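 also: BJ fibroblasts immortalized with TERT plus LT and ST oncogenes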
[5] = cytotoxicity toward DRD oncogenic fibroblasts, dose response, cell-based, non-viral oncogenic, luminescence (AID 1934); assay type: functional; conditions: Homo sapiens
[6] = system: BJ; experiment: cytotoxicity toward Ras-transformed BJeLR fibroblasts, dose response, cell-based, alamar blue fluorescence, cherrypicked samples (AID 2631); assay type: functional; conditions: Homo sapiens;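 also: confirmatory dose-response assay in RAS-dependent BJ fibroblasts engineered with TERT, LT and ST, with cytotoxicity read by fluorescence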
[7] = system: INS1; experiment: beta cell apoptosis inhibitors, cytokine rescue, dose response, luminescence, retest (AID 449756); assay type: functional, cell-based; conditions: Rattus norvegicus;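 also: cell death triggered by IL-1 beta plus TNF-alpha plus IFN-gamma mixture; protective hits raise ATP signal compared with cytokine alone wells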
[8] = Fluorescence-based cell-based high throughput dose response assay for inhibitors of the interaction of nucleotide-binding oligomerization domain containing 2 (NOD2) and the receptor-interacting serine-threonine kinase 2 (RIPK2).; assay type: functional; conditions: Homo sapiens
[9] = biological target: T1, Heat shock factor protein 1 (Mus musculus, UniProt P38532); experiment: inhibition of MG132-induced HSE-luciferase signal, confirmation, cell-based, NIH3T3, luminescence, dose retest (AID 2382); assay type: functional;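 also: NIH3T3 fibroblasts with HSF1-driven luciferase reporter stressed by proteasome inhibitor MG132; luminescence from HSF1-driven luciferase expression after 8 hours of MG132 stress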
T1 sequence (P38532 whole entry): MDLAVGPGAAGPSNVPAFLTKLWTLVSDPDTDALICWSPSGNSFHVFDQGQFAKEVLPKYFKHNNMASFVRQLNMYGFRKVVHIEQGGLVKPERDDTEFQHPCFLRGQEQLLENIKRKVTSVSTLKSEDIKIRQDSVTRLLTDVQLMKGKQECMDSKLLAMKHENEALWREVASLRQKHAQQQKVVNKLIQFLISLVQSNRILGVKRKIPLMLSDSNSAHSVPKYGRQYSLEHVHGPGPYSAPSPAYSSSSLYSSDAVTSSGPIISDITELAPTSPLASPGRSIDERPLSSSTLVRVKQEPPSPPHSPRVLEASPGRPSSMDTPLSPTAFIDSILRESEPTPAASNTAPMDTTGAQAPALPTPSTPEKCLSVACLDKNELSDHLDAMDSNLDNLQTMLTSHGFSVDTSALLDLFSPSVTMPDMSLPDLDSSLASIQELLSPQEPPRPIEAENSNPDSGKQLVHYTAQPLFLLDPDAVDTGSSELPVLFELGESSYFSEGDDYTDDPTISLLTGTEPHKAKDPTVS

[10] = biological target: T2, Microphthalmia-associated transcription factor (Homo sapiens, UniProt O75030); experiment: TRPM1 promoter luciferase signal decrease, dose response, MITF inhibitor project, cell-based, SK-MEL-5, cherry-picked, set 3 (AID 493073); assay type: functional
T2 sequence (O75030 whole entry): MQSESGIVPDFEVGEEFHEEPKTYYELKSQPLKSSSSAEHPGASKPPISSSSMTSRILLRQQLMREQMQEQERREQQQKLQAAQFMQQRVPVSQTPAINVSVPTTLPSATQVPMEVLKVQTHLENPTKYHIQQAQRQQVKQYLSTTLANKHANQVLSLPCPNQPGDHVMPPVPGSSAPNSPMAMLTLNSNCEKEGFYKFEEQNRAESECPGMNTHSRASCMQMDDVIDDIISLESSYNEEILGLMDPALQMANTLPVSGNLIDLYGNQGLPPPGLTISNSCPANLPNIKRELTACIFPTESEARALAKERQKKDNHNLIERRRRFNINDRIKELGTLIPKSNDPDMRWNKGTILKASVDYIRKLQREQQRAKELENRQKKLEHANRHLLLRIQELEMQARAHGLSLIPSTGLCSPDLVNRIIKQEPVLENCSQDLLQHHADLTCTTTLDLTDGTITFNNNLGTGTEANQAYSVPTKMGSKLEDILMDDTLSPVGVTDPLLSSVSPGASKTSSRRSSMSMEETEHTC

[11] = Shn3 3'UTR reporter inhibitors, dose response, cell-based, Clone20 osteoblasts, firefly luciferase, cherry-picked (AID 624132); assay type: functional;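 also: firefly luciferase luminescence from reporter carrying the Shn3 3'UTR in osteoblasts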
[12] = HepG2 cell cytotoxicity, dose response, cytotoxicity control for Shn3 inhibitor project, CellTiter-Glo, cherry-picked (AID 624134); assay type: functional, cell-based
[13] = control 3'UTR Renilla luciferase suppression, dose response, counter-screen for Shn3 inhibitor project, cell-based, Clone20-Shn3RL, cherry-picked (AID 624133); assay type: functional
[14] = biological target: T3, Interleukin-8 (Homo sapiens, UniProt P10145); experiment: Dose Response confirmation of uHTS small molecule hits for cystic fibrosis induced NFkb Inhibitors in a TNFa-induced IL8 counterscreen.; assay type: functional; conditions: read-out: IC50_Mean
[15] = biological target: T3, Interleukin-8; experiment: Dose Response confirmation of uHTS small molecule hits for cystic fibrosis induced NFkb Inhibitors in a PAF-induced IL8 counterscreen.; assay type: functional; conditions: read-out: IC50_Mean
[16] = biological target: Paired box protein Pax-8 (Homo sapiens, UniProt Q06710); experiment: inhibitors of PAX8-driven TPO luciferase reporter, dose response, RMG-I cells, cherry-pick (AID 687027); assay type: functional, cell-based;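 also: luciferase reporter driven by Pax8 target thyroperoxidase promoter measured by SteadyGlo luminescence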
[17] = A549 cell cytotoxicity, dose response, cytotoxicity control, plate reader, cherry-pick, antagonist series (AID 743412); assay type: functional, cell-based
[18] = HepG2 cell cytotoxicity, dose response, cytotoxicity control, plate reader, cherry-pick, antagonist series (AID 743416); assay type: functional, cell-based
[19] = LGR2 antagonists, dose response, cell-based, HEK293, CRE-luciferase reporter, cherry pick, set 2 (AID 743343); assay type: functional;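 also: transfected cells were stimulated with diluted bursicon conditioned medium after compound addition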
[20] = MC4R antagonists, dose response, counter-screen for LGR2 antagonist project, cell-based, plate reader, cherry pick (AID 743444); assay type: functional;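 also: transfected HEK 293 cells stimulated with alpha-MSH peptide; potency of inhibitors of the alpha-MSH evoked signal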
[21] = HEK293 cell cytotoxicity, dose response, cytotoxicity control, plate reader, cherry-picked samples (AID 743446); assay type: functional, cell-based
[22] = biological target: Tyrosine-protein phosphatase non-receptor type 11 (Homo sapiens, UniProt Q06124); experiment: SHP2 phosphatase inhibition, dose response, selectivity assay for STEP inhibitor project, biochemical (AID 602367); assay type: functional; conditions: read-out: IC50_Mean
[23] = biological target: Tyrosine-protein phosphatase non-receptor type 5 (Homo sapiens, UniProt P54829); experiment: STEP phosphatase inhibitors, confirmation, biochemical, fluorescence intensity, uHTS hits (AID 602372); assay type: functional; conditions: read-out: IC50_Mean
[24] = biological target: Dual specificity protein phosphatase 3 (Homo sapiens, UniProt P51452); experiment: VHR phosphatase inhibition, dose response, selectivity assay for STEP inhibitor project, biochemical (AID 602374); assay type: functional; conditions: read-out: IC50_Mean
[25] = biological target: T4, Neuropeptides B/W receptor type 1 (Homo sapiens, UniProt P48145); experiment: GPR7 antagonist potency, late-stage follow-up, cell-based, fluorescence, dose response, set 5 (AID 588566); assay type: functional
T4 sequence (P48145 whole entry): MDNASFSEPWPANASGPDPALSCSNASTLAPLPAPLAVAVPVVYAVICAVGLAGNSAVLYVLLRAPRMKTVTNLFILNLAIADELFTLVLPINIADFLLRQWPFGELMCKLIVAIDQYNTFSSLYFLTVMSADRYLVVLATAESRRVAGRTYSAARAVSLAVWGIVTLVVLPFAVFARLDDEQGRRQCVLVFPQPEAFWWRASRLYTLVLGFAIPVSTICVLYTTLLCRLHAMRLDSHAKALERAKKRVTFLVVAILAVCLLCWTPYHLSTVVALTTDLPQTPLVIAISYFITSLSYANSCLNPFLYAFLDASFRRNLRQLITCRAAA

[26] = biological target: Melanin-concentrating hormone receptor 1 (Homo sapiens, UniProt Q99705); experiment: Late-stage fluorescence-based counterscreen for antagonists of the G-protein coupled receptor 7 (GPR7): cell-based dose response assay to identify antagonists of the melanin-concentrating hormone receptor 1 (MCHR1) Set 5.; assay type: functional
[27] = biological target: T5, Genome polyprotein (Hepatitis C virus, UniProt Q2Q167); experiment: HCV core protein dimerization inhibitors, dose response, biochemical, TR-FRET (AID 2159); design: species or system Hepacivirus hominis;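 also: blocks dimerization of HCV core protein measured by TR-FRET between tagged core106 pairs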
T5 sequence (Q2Q167 whole entry): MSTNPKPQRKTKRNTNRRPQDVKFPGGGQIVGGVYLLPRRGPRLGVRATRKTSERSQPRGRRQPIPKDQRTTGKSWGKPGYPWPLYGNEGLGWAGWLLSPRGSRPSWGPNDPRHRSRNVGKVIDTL

[28] = biological target: T5, Genome polyprotein; experiment: Late stage assay provider counterscreen results for the probe development effort to identify inhibitors of Hepatitis C Virus (HCV) core protein dimerization: Luminescence-based biochemical AlphaScreen assay to identify inhibitors of HCV core dimerization.; assay type: functional, Hepacivirus hominis

T3 sequence (P10145 whole entry): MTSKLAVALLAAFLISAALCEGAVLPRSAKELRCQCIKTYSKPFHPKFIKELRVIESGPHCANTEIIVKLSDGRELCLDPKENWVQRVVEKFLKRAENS
Dual specificity protein phosphatase 3, sequence (P51452 whole entry): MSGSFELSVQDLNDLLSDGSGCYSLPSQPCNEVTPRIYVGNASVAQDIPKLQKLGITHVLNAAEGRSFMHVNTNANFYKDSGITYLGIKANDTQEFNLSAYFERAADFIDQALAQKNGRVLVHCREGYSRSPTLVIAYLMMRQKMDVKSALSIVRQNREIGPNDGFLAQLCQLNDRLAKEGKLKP
Tyrosine-protein phosphatase non-receptor type 11, sequence (Q06124 whole entry): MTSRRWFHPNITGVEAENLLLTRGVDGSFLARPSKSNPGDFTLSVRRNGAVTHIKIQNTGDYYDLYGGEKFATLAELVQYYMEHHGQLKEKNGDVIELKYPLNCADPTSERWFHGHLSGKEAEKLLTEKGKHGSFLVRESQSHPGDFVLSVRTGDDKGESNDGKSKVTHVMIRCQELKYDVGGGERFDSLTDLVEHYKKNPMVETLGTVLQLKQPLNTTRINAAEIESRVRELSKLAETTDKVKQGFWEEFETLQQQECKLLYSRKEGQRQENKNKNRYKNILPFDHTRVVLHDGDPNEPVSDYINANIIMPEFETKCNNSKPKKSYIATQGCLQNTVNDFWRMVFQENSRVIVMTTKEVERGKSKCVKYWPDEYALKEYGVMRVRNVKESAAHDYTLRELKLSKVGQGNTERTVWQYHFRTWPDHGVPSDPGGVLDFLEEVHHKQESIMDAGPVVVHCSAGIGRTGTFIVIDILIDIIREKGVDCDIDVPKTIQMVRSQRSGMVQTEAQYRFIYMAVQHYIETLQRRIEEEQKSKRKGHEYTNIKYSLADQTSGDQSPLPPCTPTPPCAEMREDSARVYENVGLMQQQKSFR
Tyrosine-protein phosphatase non-receptor type 5, sequence (P54829 whole entry): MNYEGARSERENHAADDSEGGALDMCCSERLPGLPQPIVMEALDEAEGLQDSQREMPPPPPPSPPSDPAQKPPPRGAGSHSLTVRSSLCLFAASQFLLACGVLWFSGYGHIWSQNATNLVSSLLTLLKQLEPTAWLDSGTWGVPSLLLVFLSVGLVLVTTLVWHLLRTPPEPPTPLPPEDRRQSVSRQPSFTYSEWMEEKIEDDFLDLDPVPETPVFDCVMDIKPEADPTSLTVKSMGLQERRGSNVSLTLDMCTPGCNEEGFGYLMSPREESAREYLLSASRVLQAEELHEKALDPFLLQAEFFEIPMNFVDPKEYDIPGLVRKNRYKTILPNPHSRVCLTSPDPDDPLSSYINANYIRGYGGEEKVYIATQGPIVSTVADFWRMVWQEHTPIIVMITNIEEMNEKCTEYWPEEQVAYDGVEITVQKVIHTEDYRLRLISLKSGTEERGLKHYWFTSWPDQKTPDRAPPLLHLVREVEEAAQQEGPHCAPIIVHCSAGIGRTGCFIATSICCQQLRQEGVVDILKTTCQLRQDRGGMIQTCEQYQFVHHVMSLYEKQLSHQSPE
Melanin-concentrating hormone receptor 1, sequence (Q99705 whole entry): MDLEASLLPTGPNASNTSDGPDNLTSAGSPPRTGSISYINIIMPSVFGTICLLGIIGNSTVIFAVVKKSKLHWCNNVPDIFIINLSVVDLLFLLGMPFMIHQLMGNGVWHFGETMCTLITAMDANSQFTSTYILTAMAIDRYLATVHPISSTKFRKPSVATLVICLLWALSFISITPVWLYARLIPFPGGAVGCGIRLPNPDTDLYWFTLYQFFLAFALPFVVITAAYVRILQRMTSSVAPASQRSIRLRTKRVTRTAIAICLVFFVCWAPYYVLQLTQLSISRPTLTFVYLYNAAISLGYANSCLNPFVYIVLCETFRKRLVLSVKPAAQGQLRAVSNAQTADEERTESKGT
Paired box protein Pax-8, sequence (Q06710 whole entry): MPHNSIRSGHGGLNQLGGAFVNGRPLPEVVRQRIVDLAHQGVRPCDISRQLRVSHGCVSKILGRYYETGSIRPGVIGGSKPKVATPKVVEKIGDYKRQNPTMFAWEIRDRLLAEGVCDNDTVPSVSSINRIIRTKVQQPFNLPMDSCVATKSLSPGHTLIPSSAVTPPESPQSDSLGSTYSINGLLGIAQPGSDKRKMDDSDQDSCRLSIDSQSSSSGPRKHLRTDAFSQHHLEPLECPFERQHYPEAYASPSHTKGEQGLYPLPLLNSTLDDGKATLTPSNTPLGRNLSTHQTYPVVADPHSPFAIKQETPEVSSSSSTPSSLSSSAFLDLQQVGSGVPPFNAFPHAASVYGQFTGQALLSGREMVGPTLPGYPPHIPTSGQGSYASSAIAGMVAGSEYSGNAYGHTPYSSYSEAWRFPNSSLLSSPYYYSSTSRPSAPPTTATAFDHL

## CCOc1cc(/C=C2\COc3ccccc3C2=O)cc(Br)c1OCC(=O)N(C)C
[1]
  EC50: 5.54 µM (inconclusive)
[2]
  EC50: 8.64 µM (active)
[3]
  CC50: 15.2 µM (active)
[4]
  EC50: 16.4 µM (active)
[5]
  EC50: 5.72 µM (active)
[6]
  EC50: 2.12 µM (active)
[7]
  AC50: 7.22 µM (active)
[8]
  IC50: 6.43 µM (active)

## O=C(c1nnsc1S(=O)(=O)c1ccc(Cl)cc1)N1CCOCC1
[9]
  EC50: > 195 µM (not active)
[10]
  AC50: 9.51 µM (active)
[11]
  AC50: 7.74 µM (active)
[12]
  AC50: 31.7 µM (active)
[13]
  AC50: 12.2 µM (active)
[14]
  IC50: 1.19 µM (active)
[15]
  IC50: 1.25 µM (active)
[16]
  AC50: 6.05 µM (active)
[17]
  AC50: 13.9 µM (active)
[18]
  AC50: 15.3 µM (active)
[19]
  AC50: 4.76 µM (active)
[20]
  AC50: 5.75 µM (active)
[21]
  AC50: 15.3 µM (active)

## CCN1CCN(C(=S)c2ccc(OCC(=O)NCc3ccccc3)cc2)CC1
[22]
  IC50: 3.35 µM (active)
[23]
  IC50: 45.3 µM (inactive)
[24]
  IC50: 1.92 µM (active)

## CCOc1ccc(Oc2c(N3CCCCC3)c(Br)nn(Cc3cccc4ccccc34)c2=O)cc1
[25]
  IC50: > 20 µM (inactive)
[26]
  IC50: > 20 µM (inactive)

## CC1=C(/C=C/C(C)=C/C=C/C(C)=C/C=C/C=C(C)/C=C/C=C(C)/C=C/C2=C(C)CCCC2(C)C)C(C)(C)CCC1 [BETA CAROTENE]
[27]
  IC50: 29.7 µM (not active)
[28]
  IC50: 34.8 µM (inactive)
